Experimental data: PubChem BioAssay AID1996
≈ marks a conversion by molar mass, not a printed value.

Conditions: buffer; pH 7.4; 200.0 µM

Going from N#CCN1C(=O)C(=O)N(Cc2cccc(C(F)(F)F)c2)C1=O to CC(C)CC1NC(=O)N(CC(=O)Nc2cc([N+](=O)[O-])ccc2F)C1=O (stereo unspecified), the solubility kinetic rises from 42.6 µg/mL (≈ 137 µM) to greater than 52.8 µg/mL.

Compared with CCC(C(=O)Nc1nc(C)c(C(=O)OC)s1)c1ccccc1 (stereo unspecified), CCOC(=O)c1sc(Nc2ccc(F)cc2)nc1C is lower in solubility kinetic: 22.6 µg/mL (≈ 71 µM) for the first, less than 0.3 µg/mL for the second.

First: COc1cccc(CN(C)C(=S)Nc2ccc(C)c(C)c2)c1
Second: Cc1ccc(OCC(=O)NC(C)c2ccccc2)cc1C (stereo unspecified)
The solubility kinetic of the first is lower: 25.1 µg/mL (≈ 79.8 µM) for the first, greater than 42.5 µg/mL for the second.

Compared with CC1CCN(CCn2c(=S)[nH]c3ccccc3c2=O)CC1, COc1cccc(/C=C2\SC(N3CCC(C)CC3)=NC2=O)c1OC is 2-fold lower in solubility kinetic: 43.3 µg/mL (≈ 143 µM) for the first, 21.5 µg/mL (≈ 62.1 µM) for the second.

First: O=C(COC(=O)c1ccc(F)cc1)NCC1COc2ccccc2O1 (stereo unspecified)
Second: COC(=O)NC1c2ccccc2Oc2ccccc21
The solubility kinetic of the first is higher: greater than 51.8 µg/mL for the first, 0.7 µg/mL (≈ 2.74 µM) for the second.

Going from Cc1ccsc1C(=O)Nc1ccc(OCc2ccccc2)cc1 to O=C(Nc1ccc(OCc2ccccc2Cl)cc1)c1cccnc1, the solubility kinetic rises from less than 0.7 µg/mL to 1.8 µg/mL (≈ 5.31 µM).

Going from O=C(c1ccc(Oc2cc(Cl)cc(Cl)c2)o1)N1CCCCC1 to Cc1cc(C)cc(N(CC(=O)N2CCCCCC2)S(C)(=O)=O)c1, the solubility kinetic rises from 7.7 µg/mL (≈ 22.6 µM) to 48.5 µg/mL (≈ 143 µM) (6.3-fold).

Compared with CC(C)CN1C(=O)c2ccc(NC(=O)C3CC3)cc2C1=O, Cc1cc(NC(=O)C2CC2)ccc1NC(=O)c1cccs1 is 26-fold higher in solubility kinetic: 0.5 µg/mL (≈ 1.75 µM) for the first, 13.1 µg/mL (≈ 43.6 µM) for the second.

Going from COc1cccc(C(=O)Nc2nc3ccccc3s2)c1 to Cc1nc(-c2cccc(NC(=O)Cc3ccccc3)c2)cs1, the solubility kinetic rises from 1.6 µg/mL (≈ 5.63 µM) to 30.1 µg/mL (≈ 97.6 µM) (19-fold).

CC(Cc1ccccc1)NC(=S)CN1CCCC1=S (stereo unspecified) and CCC(C)NC(=O)N1c2ccccc2Sc2ccccc21 (stereo unspecified) are within 1.5-fold of each other in solubility kinetic: 38.9 µg/mL (≈ 133 µM) for the first, 28 µg/mL (≈ 93.8 µM) for the second.

Going from Cc1ccc(S(=O)(=O)/N=C2\C=C(Nc3ccc(O)cc3)C(=O)c3ccccc32)cc1 to Cc1ccc(-n2c(CNCc3ccc(F)cc3)nc3ccccc3c2=O)cc1, the solubility kinetic rises from 0.9 µg/mL (≈ 2.15 µM) to 35.1 µg/mL (≈ 94 µM) (39-fold).

Going from Cc1ccc(C2CCN(C(=S)Nc3cccc(Cl)c3)C2)cc1 (stereo unspecified) to CC(=O)Nc1ccc(S(=O)(=O)Nc2cc(Cl)ccc2N2CCOCC2)cc1, the solubility kinetic rises from less than 0.4 µg/mL to greater than 61.5 µg/mL.

First: CCc1ccc(NC(=O)COC(=O)CC2CCCC2)cc1
Second: O=C(CCl)Nc1ccc(S(=O)(=O)NC2=NCCCCC2)cc1
The solubility kinetic of the first is lower: 26 µg/mL (≈ 89.8 µM) for the first, greater than 51.6 µg/mL for the second.

CC(C)(C)S(=O)(=O)/C(C#N)=C/Nc1ccccn1 and CN(C)/C=C/C(=O)c1cccc(Oc2ncccn2)c1 cannot be ordered by solubility kinetic: greater than 39.8 µg/mL for the first, greater than 40.4 µg/mL for the second.

Compared with CN(C)c1nc(C#N)nc(N(C)C)n1, CN(Cc1cnccn1)Cc1nc(Cc2ccccc2Cl)no1 is 2-fold higher in solubility kinetic: 22.3 µg/mL (≈ 116 µM) for the first, 43.9 µg/mL (≈ 133 µM) for the second.

Going from COc1ccccc1C(C[N+](=O)[O-])c1c[nH]c2ccccc12 (stereo unspecified) to COc1ccccc1-n1nc(C)c(-c2ccccc2)c1N, the solubility kinetic rises from 9 µg/mL (≈ 30.4 µM) to greater than 41.9 µg/mL.

O=C(COC(=O)C1(c2ccccc2F)CCCC1)N1CCNC1=O and Cc1nc2ccccc2n1CC(=O)NC1CCCCCC1 cannot be ordered by solubility kinetic: greater than 50.2 µg/mL for the first, greater than 42.8 µg/mL for the second.

Compared with Cc1cccn2c(=O)c3cc(C(=O)N4CCCCC4C)sc3nc12 (stereo unspecified), Cc1ccc2c(c1)c1c3n2CCN(CCC(=O)O)C3CCC1 (stereo unspecified) is higher in solubility kinetic: 13.1 µg/mL (≈ 38.4 µM) for the first, greater than 44.8 µg/mL for the second.

NC1=NC(c2ccccc2)=NC1(NC(=O)c1ccccc1)C(Cl)Cl (stereo unspecified) and O=C(O)COc1ccccc1-c1nc(-c2ccccc2)c(-c2ccccc2)[nH]1 are within 1.5-fold of each other in solubility kinetic: 44.4 µg/mL (≈ 123 µM) for the first, 46.1 µg/mL (≈ 124 µM) for the second.

Compared with COc1ccc(NC(=O)CN2C(=O)NC3(CCCCC3C)C2=O)cc1S(=O)(=O)N1CCOCC1 (stereo unspecified), CCCN1CCC(NC(=O)Nc2cc(Cl)ccc2OC)CC1 is lower in solubility kinetic: greater than 74.2 µg/mL for the first, 47.6 µg/mL (≈ 146 µM) for the second.

CSc1ncc(CN2CCN(CCC(C)C)C(CCO)C2)cn1 (stereo unspecified) and CCCN1CCN(C(=O)c2c(Cl)cnn2C)CC1 cannot be ordered by solubility kinetic: 41.7 µg/mL (≈ 123 µM) for the first, greater than 40.6 µg/mL for the second.

First: Oc1ccc2ccccc2c1CN1CCN(C/C=C/c2ccccc2)CC1
Second: CN1CCc2c(sc3c2C(=O)NC(/C=C\c2ccccc2)N3)C1 (stereo unspecified)
The solubility kinetic of the first is 4.4-fold lower: 10.1 µg/mL (≈ 28.2 µM) for the first, 44.6 µg/mL (≈ 137 µM) for the second.

First: COc1cccc(-c2noc(CCC(=O)NCC3CCCO3)n2)c1 (stereo unspecified)
Second: Cc1ccc(C)c(N2CC(C(=O)Nc3cc(C)on3)CC2=O)c1 (stereo unspecified)
The solubility kinetic of the first is higher: greater than 49.7 µg/mL for the first, 40.3 µg/mL (≈ 129 µM) for the second.

Compared with COc1ccc(CNC(=O)C(C)OC(=O)c2cccs2)cc1 (stereo unspecified), O=C(NCc1ccc(Cl)cc1)c1ccncc1 is higher in solubility kinetic: 26.9 µg/mL (≈ 84.2 µM) for the first, greater than 37 µg/mL for the second.

Going from CC1(C(=O)NCCOc2ccccc2Cl)CC1(Cl)Cl (stereo unspecified) to Cc1cccc(NC(=O)CSc2cccc3cccnc23)c1, the solubility kinetic falls from greater than 48.4 µg/mL to 21.3 µg/mL (≈ 69.1 µM).

Cc1nc(N)nc(N)c1CCCc1ccc(Cl)c(Cl)c1 and Cc1cc(Br)cc(Cl)c1OC(=O)c1cnccn1 cannot be ordered by solubility kinetic: greater than 46.7 µg/mL for the first, 47.4 µg/mL (≈ 145 µM) for the second.

First: O=C(Nc1nc2cc3c(cc2s1)OCO3)c1ccc(N2C(=O)CCC2=O)cc1
Second: Cc1csc(NC(=O)c2ccc3c(c2)OCO3)n1
The solubility kinetic of the first is 29-fold lower: 1.1 µg/mL (≈ 2.78 µM) for the first, 31.4 µg/mL (≈ 120 µM) for the second.

Going from CC(=O)OCCNc1cc(SC(C)C)c2nonc2c1[N+](=O)[O-] to Cc1nn(CC(=O)NC2(C#N)CCCCC2)c(C)c1[N+](=O)[O-], the solubility kinetic rises from 4.1 µg/mL (≈ 12 µM) to greater than 45.8 µg/mL.

CN1C(=O)NC(c2ccc(O)cc2)C2=C1CN(c1ccc(O)cc1)C2=O (stereo unspecified) and CCCCN1C(=O)CCC(C(=O)O)C1c1ccc([N+](=O)[O-])cc1 (stereo unspecified) cannot be ordered by solubility kinetic: greater than 52.7 µg/mL for the first, greater than 48.1 µg/mL for the second.

N#Cc1nc(-c2ccc(F)cc2)oc1N1CCC(C(N)=O)CC1 and COc1ccc(S(=O)(=O)Nc2ccc(Cl)cn2)cc1 are within 1.5-fold of each other in solubility kinetic: 12.4 µg/mL (≈ 39.5 µM) for the first, 14.4 µg/mL (≈ 48.2 µM) for the second.

Work on CN(C)CCNC(=O)c1scc2c1CCCC2.Cl yielded a solubility kinetic greater than 43.3 µg/mL.
